The nature of series [1]: Solubility in buffer systems by UPLC-UV (Example 13). The series is classed as physicochemical. To be noted: pH 7.4, Solubility in Buffer C [mg/ml]. A digest of the protocol:
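Quantitation used UV peak area from UPLC of the 1:10-diluted supernatant, set against a reference-compound standard curve with extinction coefficients adjusted for amino acid sequence.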

Series [2] is described as follows: Chemical stability, purity loss by UPLC-UV after 28 days at 40° C. vs 5° C., pH 4.5 acetate buffer (Example 12). The series is classed as physicochemical. To be noted: 28 days 40° C. vs 5° C.; pH 4.5, 20 mM acetate buffer; 300 μM. Here is the method:
The chemical stability of the compounds was assessed by storing the compounds under various conditions and then determining the loss of purity by UPLC-UV.
Prior to measuring the chemical stability of a batch of test compound, the purity of the compound was determined through UPLC/MS. For stability testing the target concentration was 300 μM pure compound. Therefore, solutions from solid samples were prepared in a pH 4.5, 20 mM acetate buffer system with a concentration of 300 μM compound based on the previously determined % purity:
At the starting point, UPLC-UV was performed by injection of 2 μl of the undiluted sample. Aliquots were then stored for 28 days at temperatures of 5 and 40° C. […] Then 2 μl samples of the undiluted supernatant were analysed with UPLC-UV. The chemical stability was calculated by the equation: [(purity after 28 days at 5° C.)−(purity after 28 days at 40° C.)]/(purity after 28 days at 5° C.)]×100%. The purity was calculated as: [(peak area compound)/(total peak area)]×100%.

In the next series the test system is rat CRF2R α receptor. The experiment in a line: cAMP agonism at rat CRF2R α receptor in A7R5 rat aortic smooth muscle cells (Example 8). Conditions: cAMP HTRF, A7R5 rat aortic smooth muscle cell line, 0% HSA. The series is classed as cell-based. In short, it runs like this:
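Potency (EC50) is the concentration reaching half-maximal activation, with responses scaled so that 1000 nM urocortin 2 equals 100%. Intracellular cAMP was quantified by homogeneous time-resolved fluorescence at 665/620 nm, 1 h after lysis-buffer reagents. Compound stimulation lasted 30 min at room temperature on 2000 IBMX-treated (2 mM) cells per well in HEPES-buffered HBSS.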

The next series has as its target T1, human CRF2α receptor (Homo sapiens, UniProt Q13324).
T1 construct: expressed in transfected cells; host or cells: TeloHEAC
T1 sequence (Q13324 1-411): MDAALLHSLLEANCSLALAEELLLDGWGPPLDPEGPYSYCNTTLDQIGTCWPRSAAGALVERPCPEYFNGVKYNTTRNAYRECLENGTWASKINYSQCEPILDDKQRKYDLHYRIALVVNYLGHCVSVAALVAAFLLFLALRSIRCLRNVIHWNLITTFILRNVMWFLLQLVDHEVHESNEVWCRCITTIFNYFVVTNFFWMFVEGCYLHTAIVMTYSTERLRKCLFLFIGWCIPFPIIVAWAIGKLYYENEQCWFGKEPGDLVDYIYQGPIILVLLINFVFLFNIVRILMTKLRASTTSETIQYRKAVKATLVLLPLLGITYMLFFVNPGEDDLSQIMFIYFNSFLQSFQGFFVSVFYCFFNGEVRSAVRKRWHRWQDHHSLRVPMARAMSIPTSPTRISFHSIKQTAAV
The experiment in a line: cAMP agonism at human CRF2 α receptor in TeloHEAC cells (Example 7). The series is classed as cell-based. To be noted: cAMP HTRF, TeloHEAC cells stably expressing human CRF2 α, 0% HSA; read-out: EC50 [nM], 0% HSA. A digest of the protocol: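 Steps: thaw and wash cells; suspend in 1×HBSS, 20 mM HEPES, 0 or 0.1% HSA, 2 mM IBMX; add compound, 30 min RT; lyse with HTRF reagents, 1 h; read 665/620 nm. EC50 calculated, E% versus 1000 nM UCN2.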

Series [3] is described as follows: Physical stability, dynamic light scattering assay (Example 15). The series is classed as physicochemical. Conditions: Buffer A (100 mM acetate, pH 4.5). As to the method: The physical stability of the compounds was also assessed using a dynamic light scattering assay.
In the present study, the physical stability of test compounds was assessed by determining the apparent hydrodynamic radius (Rh), the scattering intensity (I) and mass contribution (M) after synthesis (0 weeks) and after storage for 4 weeks at 40° C.
For each solution of test compound, the hydrodynamic radius Rh and the diffusion constant D (related via the Stokes-Einstein equation) were determined as an average over triplicates. Both parameters were determined at different compound concentrations (e.g., Rh1 and D1: 1 mg/ml and Rh5 and D5: 5 mg/ml, Rh10 and D10: 10 mg/mL) in the same buffer system. The difference of these parameters between low and high peptide concentration is a surrogate for the DLS interaction parameter kD. […] In addition, the hydrodynamic radius Rh and the corresponding Scattering Intensity (%) were determined as an average over duplicates. The target concentration was 300 μM. Therefore, solutions from solid samples were prepared in a buffer system with a concentration of 300 μM compound based on the previously determined % purity.
DLS measurements were performed on a DynaPro Plate Reader I (Wyatt Technology, Santa Barbara, CA, US) with an 837 nm laser light source at a scattering angle of 150°. The data were collected and processed with Dynamics V 7.8.1.3 or 7.8.2.18 software provided by Wyatt Technology.
Hydrodynamic radii were determined with non-negatively constrained least squares (NNLS) methods using DYNALS algorithms with regularization fit. […] Samples were tempered over 1 hour at +25° C. and visually inspected before analysis.
Samples were mixed with the aid of a pipet tip. Measurements were performed in 5 replicates. […] The plate was centrifuged for 2 minutes at 600 rcf. After removing the sealing, the samples were measured at +25° C.

Starred links: 1 amine or outer side, 2 acyl side, 3 side chain; linkers in the order of their positions; H or OH if unused. Non-standard residues stand in square brackets, D forms with d. Residues, ends and D or L forms follow the SMILES beside them. Groups on a side chain read outwards from the residue. *: point of attachment. C18 diacid = O=C(O)CCCCCCCCCCCCCCCCC(=O)*; γGlu = O=C(O)[C@H](CCC(=O)[*:2])N[*:1]; AEEA = NCCOCCOCC(=O)O; Aib = CC(C)(N)C(=O)O

For the molecule `CC[C@H](C)[C@H](N)C(=O)N[C@H](C(=O)N[C@@H](CC(C)C)C(=O)N[C@@H](CO)C(=O)N[C@@H](CC(C)C)C(=O)N[C@@H](CC(=O)O)C(=O)N[C@@H](C(=O)N1CCC[C@H]1C(=O)N[C@H](C(=O)N[C@@H](CCCCN)C(=O)N[C@@H](CC(C)C)C(=O)N[C@@H](CCCCNC(=O)COCCOCCNC(=O)COCCOCCNC(=O)CC[C@H](NC(=O)CCCCCCCCCCCCCCCCC(=O)O)C(=O)O)C(=O)N[C@@H](CCC(N)=O)C(=O)N[C@@H](CCCCN)C(=O)N[C@@H](CC(C)C)C(=O)N[C@@H](CC(C)C)C(=O)N[C@@H](CCCCN)C(=O)N[C@@H](CCC(N)=O)C(=O)N[C@@H](CCC(=O)O)C(=O)N[C@@H](CCCNC(=N)N)C(=O)N[C@@H](CCC(N)=O)C(=O)N[C@@H](CCCNC(=N)N)C(=O)N[C@@H](CCCCN)C(=O)NC(C)(C)C(=O)N[C@@H](CCCNC(=N)N)C(=O)N[C@@H](CCC(=O)O)C(=O)N[C@@H](CCC(N)=O)C(=O)N[C@@H](C)C(=O)N[C@@H](CCC(=O)O)C(=O)N[C@@H](CCCCN)C(=O)N[C@@H](CC(N)=O)C(=O)N[C@@H](CCCCN)C(=O)N[C@@H](CCCNC(=N)N)C(=O)N[C@H](C(=O)N[C@@H](CC(C)C)C(=O)N[C@@H](CCC(=O)O)C(=O)N[C@@H](CCCNC(=N)N)C(=O)N[C@H](C(N)=O)C(C)C)[C@@H](C)CC)[C@@H](C)O)C(C)C)C(C)C` [compound 36] (H-IVLSLD[dV]PTKLK([AEEA-AEEA-γGlu-C18 diacid])QKLLKQERQRK[Aib]REQAEKNKRILERV-NH2; N-terminus assumed), the solubility at 1 h in series [1] was above 9700 µg/mL. Besides, the “Relative purity loss [%]” value in series [2] is 3.65%. For the same molecule, the EC50 in the series on rat CRF2R α receptor stood at 13.3 nM. Further, on human CRF2α receptor, the EC50 is 1.45 nM. In series [3] (0 weeks), the “Apparent Rh [nm] 0 weeks” value was 1.42 ± 0.08 nm and the “Scattering Intensity (I) [%] 0 weeks” value is recorded as 88 ± 8%. In series [3] (4 weeks at 40° C.), the “Apparent Rh [nm] 4 weeks” value came to 1.48 ± 0.11 nm and the “Scattering Intensity (I) [%] 4 weeks” value amounted to 98 ± 2%.
